Measurements: patent publication US20250304600A1, “PHARMACEUTICAL COMPOUNDS AND COMPOSITIONS AS c-KIT KINASE INHIBITORS” (Enanta Pharmaceuticals, Inc., priority 2023, published 2025)

What was measured:
[1] = molecular target: T1, Recombinant human c-KIT kinase (Homo sapiens, UniProt P10721); test: c-KIT kinase chemiluminescence assay (ADP-Glo); format: biochemical; settings: ATP 50 μM
T1 construct: purchased Promega V4498
Protocol: The c-KIT Kinase Enzyme System (V4498) and ADP-Glo™ Kinase Assay kit (V6930) were purchased from Promega (Madison, WI). DMSO (D2650) was purchased from Sigma-Aldrich (Burlington, MA).
c-KIT Kinase Chemiluminescence Assay:
Kinase Reaction: The kinase assay was based on the recommended protocol by c-KIT Kinase Enzyme System from Promega. Recombinant human c-KIT kinase in 3 μL of assay buffer (40 mM Tris pH 7.5, 20 mM MgCl2, 0.1 mg/mL BSA and 50 μM DTT) was added to the test or high control wells and 3 μL of assay buffer was added to the low control wells. The microplate was centrifuged at 800 rotations per minute (rpm) for 60 s and incubated at room temperature (RT) for 30 min. Next, 2 μL of buffered ATP and polyEY substrate solution was added to all wells. The microplate was centrifuged at 800 rpm for 60 s and incubated at RT for 2 h.
ADP detection with ADP-Glo™ Kinase Assay: After the kinase reaction incubation, 5 μL of ADP-Glo™ reagent was added to all wells. The microplate was centrifuged at 800 rpm for 60 s and incubated at RT for 40 min. Ten microliter (10 μL) of Kinase Detection Reagent (Luciferin-Luciferase system) was then added to all wells. The microplate was centrifuged at 800 rpm for 60 s and incubated at RT for 60 min. Kinase activity was measured as an increase in luminescence at RT in an Envision plate reader equipped with 560 nm filters and operating in endpoint mode.
Data Analysis: Endpoint chemiluminescence from high and low control wells were used to calculate normalized c-KIT activity at various concentrations of test compounds. The normalized activities were fitted to inhibitor-versus-normalized response fit in GraphPad Prism 7 to determine half-maximal inhibitory concentration (IC50) and hill coefficient values (H).
Where I is the inhibitor concentration and H is the Hill coefficient.

[2] = tested on: M-07e cells which endogenously express human c-KIT; test: M-07e cellular assay: SCF-mediated cell proliferation (CellTiter Glo); format: cell-based; settings: 72 h, SCF-mediated proliferation of M-07e cells
Protocol: M-07e cells (Creative Bioarray, CSC-C0249) which endogenously express human c-KIT were used to evaluate the effect of compounds on stem cell factor (SCF)-mediated cell proliferation. M-07e cells were cultured in growth media (RPMI+10% FBS+1% penicillin/streptomycin+10 ng/mL GM-CSF) at 5E5-1.5E6 cells/mL, replenishing media every 3-4 days. 1.5E4 cells were seeded per well in 384 well tissue culture treated plates in […] assay media (RPMI+10% FBS+1% penicillin/streptomycin) without growth factor stimulation and incubated at 37° C. in a CO2 humidity-controlled incubator. Twenty-four hours later, three-fold serially diluted test compounds in media containing SCF (at the previously determined EC90) were added to the plated M-07e cells and incubated for an additional 72 hours. Cell viability was determined by adding 25 μL CellTiter Glo (Promega) to the cells and the luminescence was measured using a Perkin Elmer Envision plate reader. The EC50 was determined using GraphPad Prism. Percent cell growth was determined after normalizing the curve to the mean RLU high control (no compound control wells) at 100% and the mean RLU low control (no SCF control wells) at 0%.

T1 sequence (P10721 544-976 limits assumed): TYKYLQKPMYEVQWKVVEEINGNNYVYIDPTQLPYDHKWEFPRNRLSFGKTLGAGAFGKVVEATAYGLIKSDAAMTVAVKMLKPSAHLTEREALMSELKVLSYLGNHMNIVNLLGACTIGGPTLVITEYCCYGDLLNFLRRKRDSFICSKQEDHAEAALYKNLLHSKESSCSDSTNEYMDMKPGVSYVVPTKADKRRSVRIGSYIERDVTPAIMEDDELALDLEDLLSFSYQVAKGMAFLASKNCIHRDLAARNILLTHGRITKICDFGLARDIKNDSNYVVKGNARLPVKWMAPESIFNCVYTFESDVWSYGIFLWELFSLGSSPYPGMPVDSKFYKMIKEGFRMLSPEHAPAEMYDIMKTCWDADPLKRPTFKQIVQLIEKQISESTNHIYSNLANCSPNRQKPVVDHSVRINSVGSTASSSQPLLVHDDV

IC50 [1]	SMILES	EC50 [2]
< 100 nM	Cc1ccc(-c2noc([C@H]3C[C@@H]3F)n2)cc1NC(=O)c1cnc(-c2ccc3nn(CC(C)(C)O)c(C)c3c2)o1 [Example 21a]	< 100 nM
100 to 1000 nM	Cc1ncc(-c2noc([C@H]3C[C@@H]3F)n2)cc1NC(=O)c1cnc(-c2ccc3c(c2)c(C)nn3CC(C)(C)O)o1 [Example 22a]	< 100 nM
< 100 nM	Cc1ccc(-c2noc([C@H]3C[C@@H]3F)n2)cc1NC(=O)c1cnc2n1Cc1ccccc1-2 [Example 99]	–
< 100 nM	Cc1ncc(-c2ccn3ncc(C(=O)Nc4cc(-c5noc([C@H]6C[C@@H]6F)n5)ccc4C)c3c2)c(C)n1 [Example 168]	–
100 to 1000 nM	Cc1ncc(-c2noc(C3CC(OC(F)F)C3)n2)cc1NC(=O)c1cnn2ccc(N3CC4(C3)CC(O)(C(F)(F)F)C4)cc12 (stereo not drawn) [Example 281-40]	< 100 nM
< 100 nM	Cc1ncc(-c2noc(C3CC(OC(F)F)C3)n2)cc1NC(=O)c1cnn2ccc(N3CC4(C3)CC(O)(C(F)F)C4)cc12 (stereo not drawn) [Example 281-44]	< 100 nM
> 1000 nM	Cc1nc(N)nc(C)c1-c1ccn2ncc(C(=O)Nc3cc(-c4noc(C5CN(C(=O)OC(C)(C)C)C5)n4)sc3C)c2c1 [Example 369]	–
> 1000 nM	Cc1nc(N)nc(C)c1-c1ccn2ncc(C(=O)Nc3cc(-c4noc(C5CN(C(=O)[C@H]6C[C@@H]6F)C5)n4)sc3C)c2c1 [Example 371]	–
100 to 1000 nM	Cc1ncc(-c2nnn(C[C@H](O)C(F)F)n2)cc1NC(=O)c1cnn2ccc(N3CC4(C3)CC(O)(C(F)F)C4)cc12 [Example 378]	100 to 1000 nM
100 to 1000 nM	Cc1ncc(-c2nnn(C[C@@H](O)C(F)(F)F)n2)cc1NC(=O)c1cnn2ccc(N3CC4(C3)CC(O)(C(F)F)C4)cc12 [Example 381]	100 to 1000 nM
> 1000 nM	Cc1ncc(-c2nnn(CCO)n2)cc1NC(=O)c1cnn2ccc(N3CC4(C3)CC(O)(C(F)F)C4)cc12 [Example 387]	> 1000 nM
100 to 1000 nM	Cc1ccc(-c2noc([C@H]3C[C@@H]3C(F)F)n2)cc1NC(=O)c1cnn2ccc(-c3c(C)nc(N)nc3C)cc12 [Example 390]	100 to 1000 nM
> 1000 nM	O=C(Nc1cc(-c2ncc(C3CC3)cn2)ccc1C(F)F)c1cnn2ccc(Br)cc12 [Example 392]	> 1000 nM
> 1000 nM	Cc1ccc(-c2noc(C3C[C@@H]3F)n2)cc1NC(=O)c1ccc(NC(=O)OC(C)(C)C)nc1 (stereo partly drawn) [Example 396]	> 1000 nM
> 1000 nM	Cc1ncc(-c2noc(C3C[C@@H]3C(F)F)n2)cc1NC(=O)c1ccc(NC(=O)OC(C)(C)C)nc1 (stereo partly drawn) [Example 399]	> 1000 nM
> 1000 nM	Cc1ccc(-c2noc(C3C[C@@H]3C(F)F)n2)cc1NC(=O)c1ccc(N)nc1 (stereo partly drawn) [Example 400]	> 1000 nM
> 1000 nM	Cc1ncc(-c2noc([C@H]3C[C@@H]3C(F)F)n2)cc1NC(=O)c1ccc(N)nc1 [Example 401]	100 to 1000 nM

Continued, compound first:

SMILES	IC50 [1]	EC50 [2]
Cc1ccc(-c2noc([C@H]3C[C@@H]3F)n2)cc1NC(=O)c1cnc2cccnn12 [Example 16]	> 1000 nM	–
Cc1ncc(-c2noc([C@H]3C[C@@H]3F)n2)cc1NC(=O)c1cnc(-c2ccc3nn(CC(C)(C)O)c(C)c3c2)o1 [Example 23a]	100 to 1000 nM	100 to 1000 nM
Cc1ccc(-c2noc([C@H]3C[C@@H]3F)n2)cc1NC(=O)c1cnc(N2CC(C(=O)O)C2)s1 [Example 98-4]	–	> 1000 nM
C#Cc1ccc2c(C(=O)Nc3cc(-c4noc([C@H]5C[C@@H]5F)n4)ccc3C)cnn2c1 [Example 106]	–	< 100 nM
Cc1ccc(-c2noc([C@H]3C[C@@H]3F)n2)cc1NC(=O)c1cnn2cc(-c3cn(C(F)F)nn3)ccc12 [Example 107]	–	< 100 nM
COCCn1nc(C)c(-c2ccc3c(C(=O)Nc4cc(-c5noc([C@H]6C[C@@H]6F)n5)ccc4C)cnn3c2)c1C [Example 147]	< 100 nM	< 100 nM
Cc1ccc(-c2noc([C@H]3C[C@@H](OC(F)F)C3)n2)cc1NC(=O)c1cnn2ccc(N3CC4(COC4)C3)cc12 [Example 242]	–	< 100 nM
Cc1cc(F)c(-c2noc(C3CC(OC(F)F)C3)n2)cc1NC(=O)c1cnn2ccc(N3CC4(COC4)C3)cc12 (stereo not drawn) [Example 281-58]	100 to 1000 nM	100 to 1000 nM
Cc1ccc(-c2noc([C@H]3C[C@@H]3F)n2)cc1NC(=O)c1cnc(-c2cnc(N)nc2)o1 [Example 308-64]	> 1000 nM	–
Cc1ccc(-c2nc([C@H]3C[C@@H]3F)cs2)cc1NC(=O)c1cnn2ccc(N3CC4(COC4)C3)cc12 [Example 309]	< 100 nM	–
Cc1ncc(-c2ncc(OC(F)(F)F)cn2)cc1NC(=O)c1cnn2ccc(N3CC4(C3)CC(O)(C(F)F)C4)cc12 [Example 313]	100 to 1000 nM	< 100 nM
Cc1ncc(-c2ncc(OC(F)(F)F)cn2)cc1NC(=O)c1cnn2ccc(-c3c(C)nc(N)nc3C)cc12 [Example 364]	> 1000 nM	–
Cc1nc(N)nc(C)c1-c1ccn2ncc(C(=O)Nc3cc(-c4noc([C@H]5C[C@@H](OC(F)(F)F)C5)n4)sc3C)c2c1 [Example 368]	> 1000 nM	–
Cc1nc(N)nc(C)c1-c1ccn2ncc(C(=O)Nc3cc(-c4noc([C@H]5C[C@@H]5F)n4)sc3C)c2c1 [Example 370]	> 1000 nM	–
Cc1nn(-c2ccc(C3CC3)cc2)cc1NC(=O)c1cnn2ccc(N3CC4(COC4)C3)cc12 [Example 372]	> 1000 nM	–
Cc1ncc(-c2nnn(C[C@@H](O)C(F)F)n2)cc1NC(=O)c1cnn2ccc(N3CC4(C3)CC(O)(C(F)F)C4)cc12 [Example 379]	100 to 1000 nM	100 to 1000 nM
Cc1ncc(-c2nnn(C[C@H](O)C(F)(F)F)n2)cc1NC(=O)c1cnn2ccc(N3CC4(C3)CC(O)(C(F)F)C4)cc12 [Example 380]	100 to 1000 nM	100 to 1000 nM
CCn1nnc(-c2cnc(C)c(NC(=O)c3cnn4ccc(N5CC6(C5)CC(O)(C(F)F)C6)cc34)c2)n1 [Example 382]	100 to 1000 nM	< 100 nM
Cc1ncc(-c2nnn(CC(C)(C)C#N)n2)cc1NC(=O)c1cnn2ccc(N3CC4(C3)CC(O)(C(F)F)C4)cc12 [Example 383]	100 to 1000 nM	100 to 1000 nM
Cc1ncc(-c2nnn(CCC(F)(F)F)n2)cc1NC(=O)c1cnn2ccc(N3CC4(C3)CC(O)(C(F)F)C4)cc12 [Example 384]	100 to 1000 nM	< 100 nM
Cc1ncc(-c2nnn(C3CCC(F)(F)CC3)n2)cc1NC(=O)c1cnn2ccc(N3CC4(C3)CC(O)(C(F)F)C4)cc12 [Example 385]	< 100 nM	< 100 nM
COCCn1nnc(-c2cnc(C)c(NC(=O)c3cnn4ccc(N5CC6(C5)CC(O)(C(F)F)C6)cc34)c2)n1 [Example 386]	100 to 1000 nM	100 to 1000 nM
COC(=O)N1CC(c2nc(-c3cc(NC(=O)c4cnn5ccc(N6CC7(C6)CC(O)(C(F)F)C7)cc45)c(C)s3)no2)C1 [Example 388]	< 100 nM	< 100 nM
Cc1ncc(-c2noc(N3CC(O)(C(F)(F)F)C3)n2)cc1NC(=O)c1cnn2ccc(N3CC4(C3)CC(O)(C(F)F)C4)cc12 [Example 389]	> 1000 nM	> 1000 nM
Cc1ncc(-c2noc([C@H]3C[C@@H]3C(F)F)n2)cc1NC(=O)c1cnn2ccc(-c3c(C)nc(N)nc3C)cc12 [Example 391]	> 1000 nM	> 1000 nM
O=C(Nc1cc(-c2ncc(C3CC3)cn2)ccc1C(F)F)c1cnn2ccc(N3CC4(C3)CC(O)(C(F)F)C4)cc12 [Example 393]	100 to 1000 nM	< 100 nM
Cc1ncc(-c2nnn[nH]2)cc1NC(=O)c1cnn2ccc(N3CC4(C3)CC(O)(C(F)F)C4)cc12 [Example 394]	> 1000 nM	> 1000 nM
Cc1ccc(-c2noc([C@H]3C[C@@H]3F)n2)cc1NC(=O)c1ccc(N)nc1 [Example 397]	> 1000 nM	> 1000 nM
Cc1ccc(-c2noc(C3C[C@@H]3C(F)F)n2)cc1NC(=O)c1ccc(NC(=O)OC(C)(C)C)nc1 (stereo partly drawn) [Example 398]	> 1000 nM	> 1000 nM
O=C(Nc1cn(-c2ccc(C3CC3)cc2)nc1C(F)F)c1cnn2ccc(N3CC4(COC4)C3)cc12 [compound 373]	–	> 1000 nM
